For 23 molecules, IC50 results are on record in patent publication US11512090B2, “Muscarinic acetylcholine M1 receptor antagonists” (PIPELINE THERAPEUTICS, INC., priority 2018, dated 2022).

Usually IC50 stands for the concentration needed to halve the response being measured.

Where two headings read alike, the source gives them in different places. A value given as a limit tells only on which side of the number the result lay.

What all share (format): cell-based
One test has as its target M3 (Homo sapiens, UniProt P20309). The experiment in a line: In vitro functional assay of muscarinic acetylcholine receptor activity, M3. Particulars: antagonist IC50 at M3; read-out: M3 IC50.
The target of a further test is T1, human M1 receptor (Homo sapiens, UniProt P11229).
T1 sequence (P11229 1-460): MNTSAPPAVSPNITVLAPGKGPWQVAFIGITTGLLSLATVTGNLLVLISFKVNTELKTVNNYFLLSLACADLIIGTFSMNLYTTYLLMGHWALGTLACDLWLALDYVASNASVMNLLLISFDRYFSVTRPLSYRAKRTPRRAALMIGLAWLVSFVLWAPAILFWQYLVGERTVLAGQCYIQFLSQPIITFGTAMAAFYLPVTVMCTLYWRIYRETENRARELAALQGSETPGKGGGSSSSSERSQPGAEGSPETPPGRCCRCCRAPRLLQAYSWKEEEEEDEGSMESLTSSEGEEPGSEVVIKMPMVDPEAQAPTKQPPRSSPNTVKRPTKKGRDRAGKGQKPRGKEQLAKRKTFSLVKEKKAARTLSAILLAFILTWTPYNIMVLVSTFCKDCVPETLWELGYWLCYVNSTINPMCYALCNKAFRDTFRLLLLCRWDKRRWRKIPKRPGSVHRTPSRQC
The experiment in a line: In vitro functional assay of muscarinic acetylcholine receptor activity (aequorin calcium flux, antagonist mode vs EC80 acetylcholine), M1. The gist of the method:
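Antagonism at M1 was measured as a concentration-dependent reduction of the EC80 acetylcholine-evoked aequorin luminescence, from which IC50 was derived. Human M1 CHO-K1 aequorin cells were first loaded with 5 uM coelenterazine h for 4 h and exposed to compound for 30 min at room temperature.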

Another test concerns the target T2, M2 (Homo sapiens, UniProt P08172).
T2 sequence (P08172 1-466): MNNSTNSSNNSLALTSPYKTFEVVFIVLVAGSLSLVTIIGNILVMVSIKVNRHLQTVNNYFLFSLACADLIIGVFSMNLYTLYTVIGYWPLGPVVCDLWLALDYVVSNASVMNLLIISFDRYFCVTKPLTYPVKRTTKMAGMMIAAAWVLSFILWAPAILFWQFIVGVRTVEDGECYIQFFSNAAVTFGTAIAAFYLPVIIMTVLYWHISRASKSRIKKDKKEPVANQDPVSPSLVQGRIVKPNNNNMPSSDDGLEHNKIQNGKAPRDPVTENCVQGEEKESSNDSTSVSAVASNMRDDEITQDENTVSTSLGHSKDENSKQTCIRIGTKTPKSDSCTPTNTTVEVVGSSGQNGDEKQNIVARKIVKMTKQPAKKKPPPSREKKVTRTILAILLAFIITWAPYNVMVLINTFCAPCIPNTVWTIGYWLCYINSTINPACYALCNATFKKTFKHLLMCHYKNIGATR
Description: In vitro functional assay of muscarinic acetylcholine receptor activity, M2.

Setting [1] is: CHO-K1 cells stably expressing human M1 receptor with Aequorin, decrease in EC80 acetylcholine response, read-out: M1 IC50.
[2] abbreviates: antagonist IC50 at M2, read-out: M2 IC50.

Sequence of M3 (P20309 whole entry): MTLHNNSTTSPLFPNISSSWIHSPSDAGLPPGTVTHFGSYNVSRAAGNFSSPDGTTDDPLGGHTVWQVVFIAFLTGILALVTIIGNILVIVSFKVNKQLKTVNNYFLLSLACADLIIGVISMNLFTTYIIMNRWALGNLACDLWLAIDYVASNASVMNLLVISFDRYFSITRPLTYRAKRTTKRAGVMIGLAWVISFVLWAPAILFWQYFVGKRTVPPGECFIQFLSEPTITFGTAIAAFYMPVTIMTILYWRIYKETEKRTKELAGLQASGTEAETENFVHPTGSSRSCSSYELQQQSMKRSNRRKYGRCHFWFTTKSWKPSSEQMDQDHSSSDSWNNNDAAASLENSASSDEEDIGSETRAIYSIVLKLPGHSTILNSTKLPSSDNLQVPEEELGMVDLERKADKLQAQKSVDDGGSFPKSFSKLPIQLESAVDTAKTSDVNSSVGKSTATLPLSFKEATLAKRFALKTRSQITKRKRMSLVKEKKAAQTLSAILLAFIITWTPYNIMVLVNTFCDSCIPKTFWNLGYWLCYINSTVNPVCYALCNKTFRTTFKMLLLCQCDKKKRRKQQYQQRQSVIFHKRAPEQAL

For `O=C(CCCc1cccc2ncccc12)N1CC2CC1CN2c1ccncc1` (stereo not drawn) [Example 57, 1-(5-(pyridin-4-yl)-2,5-diazabicyclo[2.2.1]heptan-2-yl)-4-(quinolin-5-yl)butan-1-one], the IC50 fell in the range of 1 to 10 µM on M3, 0.1 to 1 µM at human M1 receptor (setting [1]) and 1 to 10 µM at M2 (setting [2]).

As to `CC1CN(C(=O)CCCc2cccc3ncccc23)CCN1c1ccncc1` (stereo not drawn) [Example 60, 1-(3-methyl-4-(pyridin-4-yl)piperazin-1-yl)-4-(quinolin-5-yl)butan-1-one], the IC50 on M3 is 1 to 10 µM; on human M1 receptor (setting [1]) it was less than 0.1 µM; on M2 (setting [2]), 0.1 to 1 µM.

As to `O=C([C@H]1C[C@H](Oc2cccc3ncsc23)C1)N1CC2CCC(C1)N2c1ccc(F)cn1` [Example 63, ((1r,3R)-3-(benzo[d]thiazol-7-yloxy)cyclobutyl)((1R,5S)-8-(5-fluoropyridin-2-yl)-3,8-diazabicyclo[3.2.1]octan-3-yl)methanone], the IC50 at M3 is greater than 10 µM; on human M1 receptor (setting [1]) it was 1 to 10 µM; against M2, 0.1 to 1 µM.

Take `O=C([C@H]1C[C@H](Oc2cccc3ncsc23)C1)N1CC2CCC(C1)N2c1ncc(Cl)cn1` [Example 64, ((1r,3R)-3-(benzo[d]thiazol-7-yloxy)cyclobutyl)((1R,5S)-8-(5-chloropyrimidin-2-yl)-3,8-diazabicyclo[3.2.1]octan-3-yl)methanone]: the IC50 on M3 is 1 to 10 µM; at human M1 receptor (setting [1]), greater than 10 µM; at M2 (setting [2]) it was 1 to 10 µM.

For the molecule `Cc1cc(N2C3CCC2CN(C(=O)[C@H]2C[C@H](Oc4cccc5ncsc45)C2)C3)ccn1` [Example 65, ((1r,3R)-3-(benzo[d]thiazol-7-yloxy)cyclobutyl)((1R,5S)-8-(2-methylpyridin-4-yl)-3,8-diazabicyclo[3.2.1]octan-3-yl)methanone], the IC50 is greater than 10 µM at M3, 1 to 10 µM at human M1 receptor (setting [1]) and 1 to 10 µM on M2 (setting [2]).

With `O=C(CCCc1cccc2ncccc12)N1CCN(c2ccncc2F)CC1` [Example 67, 1-(4-(3-fluoropyridin-4-yl)piperazin-1-yl)-4-(quinolin-5-yl)butan-1-one], the IC50 at M3 was 1 to 10 µM; at human M1 receptor (setting [1]), 0.1 to 1 µM; at M2 (setting [2]), greater than 10 µM.

Turning to `N#Cc1cnccc1N1CCN(C(=O)CCCc2cccc3ncccc23)CC1` [Example 68, 4-(4-(4-(quinolin-5-yl)butanoyl)piperazin-1-yl)nicotinonitrile], the IC50 on M3 is 1 to 10 µM; on human M1 receptor (setting [1]), 1 to 10 µM; at M2 (setting [2]) it was greater than 10 µM.

Turning to `COc1cc(N2CCN(C(=O)CCCc3cccc4ncccc34)CC2)ccn1` [Example 69, 1-(4-(2-methoxypyridin-4-yl)piperazin-1-yl)-4-(quinolin-5-yl)butan-1-one], the IC50 on M3 is 1 to 10 µM; at human M1 receptor (setting [1]), 0.1 to 1 µM; on M2 (setting [2]) it was greater than 10 µM.

For `N#Cc1cc(N2CCN(C(=O)CCCc3cccc4ncccc34)CC2)ccn1` [Example 70, 4-(4-(4-(quinolin-5-yl)butanoyl)piperazin-1-yl)picolinonitrile], the values for the IC50 at M3, on human M1 receptor (setting [1]) and on M2 (setting [2]) were 1 to 10 µM, less than 0.1 µM and 0.1 to 1 µM, respectively.

With `COc1cnc2cccc(CNCC(=O)N3C[C@H]4CC[C@@H](C3)N4c3ccncc3F)c2c1` [Example 71, 1-((1R,5S)-8-(3-fluoropyridin-4-yl)-3,8-diazabicyclo[3.2.1]octan-3-yl)-2-(((3-methoxyquinolin-5-yl)methyl)amino)ethan-1-one], the IC50 at M3 is 1 to 10 µM; on human M1 receptor it was 0.1 to 1 µM; against M2, 0.1 to 1 µM.

For the molecule `Cc1nc2cccc(CNCC(=O)N3C[C@H]4CC[C@@H](C3)N4c3ccncc3F)c2o1` [Example 72, 1-((1R,5S)-8-(3-fluoropyridin-4-yl)-3,8-diazabicyclo[3.2.1]octan-3-yl)-2-(((2-methylbenzo[d]oxazol-7-yl)methyl)amino)ethan-1-one], the figures for the IC50 on M3, on human M1 receptor and on M2 (setting [2]) were greater than 10 µM, 0.1 to 1 µM and 1 to 10 µM, respectively.

With `Cc1nc2cccc(CCCC(=O)N3CCN(c4ccncc4F)CC3)c2o1` [Example 73, 1-(4-(3-fluoropyridin-4-yl)piperazin-1-yl)-4-(2-methylbenzo[d]oxazol-7-yl)butan-1-one], the IC50 at M3 was greater than 10 µM; on human M1 receptor (setting [1]), 0.1 to 1 µM; at M2 (setting [2]), 1 to 10 µM.

For the molecule `COc1cnc2cccc(CCCC(=O)N3CCN(c4ccncc4F)CC3)c2c1` [Example 74, 1-(4-(3-fluoropyridin-4-yl)piperazin-1-yl)-4-(3-methoxyquinolin-5-yl)butan-1-one], the IC50 at M3 is greater than 10 µM; at human M1 receptor (setting [1]) it was 1 to 10 µM; on M2 (setting [2]) it was greater than 10 µM.

`O=C(COCc1cccc2nccn12)N1C[C@H]2CC[C@@H](C1)N2c1ccncc1F` [Example 75, 1-((1R,5S)-8-(3-fluoropyridin-4-yl)-3,8-diazabicyclo[3.2.1]octan-3-yl)-2-(imidazol[1,2-a]pyridin-5-ylmethoxy)ethan-1-one]: the concentration for half-maximal inhibition (IC50) at M3 was greater than 10 µM; at human M1 receptor (setting [1]), 1 to 10 µM; on M2 (setting [2]), 1 to 10 µM.

Consider `COc1cnc2cccc(COCCC(=O)N3C[C@H]4CC[C@@H](C3)N4c3ccncc3F)c2c1` [Example 76, 1-((1R,5S)-8-(3-fluoropyridin-4-yl)-3,8-diazabicyclo[3.2.1]octan-3-yl)-3-((3-methoxyquinolin-5-yl)methoxy)propan-1-one], for which the half-maximal inhibitory concentration (IC50) on M3 is 1 to 10 µM; on human M1 receptor it was less than 0.1 µM; on M2 (setting [2]), 1 to 10 µM.

On to `C[C@@H]1CN(c2ccncc2Cl)CCN1C(=O)CCCc1cccc2ncccc12` [Example 77, (R)-1-(4-(3-chloropyridin-4-yl)-2-methylpiperazin-1-yl)-4-(quinolin-5-yl)butan-1-one], for which the figures for the IC50 on M3, on human M1 receptor (setting [1]) and at M2 (setting [2]) were 1 to 10 µM, less than 0.1 µM and 1 to 10 µM, respectively.

For `Cc1ccncc1N1CCN(C(=O)CCCc2cccc3ncccc23)[C@H](C)C1` [Example 78, (R)-1-(2-methyl-4-(4-methylpyridin-3-yl)piperazin-1-yl)-4-(quinolin-5-yl)butan-1-one], the figures for the IC50 at M3, at human M1 receptor (setting [1]) and at M2 (setting [2]) were 1 to 10 µM, less than 0.1 µM and 1 to 10 µM, respectively.

For `Cc1cc(Cl)cnc1N1CCN(C(=O)CCCc2cccc3ncccc23)[C@H](C)C1` [Example 79, (R)-1-(4-(5-chloro-3-methylpyridin-2-yl)-2-methylpiperazin-1-yl)-4-(quinolin-5-yl)butan-1-one], the IC50 was 0.1 to 1 µM on M3, less than 0.1 µM at human M1 receptor (setting [1]) and less than 0.1 µM on M2 (setting [2]).

Take `Cc1cc(F)cnc1N1CCN(C(=O)CCCc2cccc3ncsc23)[C@@H](C)C1` [Example 81, (S)-4-(benzo[d]thiazol-7-yl)-1-(4-(5-fluoro-3-methylpyridin-2-yl)-2-methylpiperazin-1-yl)butan-1-one]: the IC50 at M3 is 1 to 10 µM; at human M1 receptor (setting [1]), less than 0.1 µM; on M2 (setting [2]) it was 0.1 to 1 µM.

Take `Cc1cc(F)cnc1N1CCN(C(=O)CCCc2cccc3ncncc23)[C@@H](C)C1` [Example 82, (S)-1-(4-(5-fluoro-3-methylpyridin-2-yl)-2-methylpiperazin-1-yl)-4-(quinazolin-5-yl)butan-1-one]: the figures for the IC50 at M3, at human M1 receptor (setting [1]) and at M2 (setting [2]) were 1 to 10 µM, less than 0.1 µM and 1 to 10 µM, respectively.

On to `Cc1cc(F)cnc1N1CCN(C(=O)CCCc2cccc3nccn23)[C@@H](C)C1` [Example 84, (S)-1-(4-(5-fluoro-3-methylpyridin-2-yl)-2-methylpiperazin-1-yl)-4-(imidazo[1,2-a]pyridin-5-yl)butan-1-one], for which the IC50 on M3 is greater than 10 µM; at human M1 receptor (setting [1]), 1 to 10 µM; at M2 (setting [2]), greater than 10 µM.

As for `O=C(CCOCc1cccc2ncsc12)N1C[C@H]2CC[C@@H](C1)N2c1ccncc1F` [Example 85, 3-(benzo[d]thiazol-7-ylmethoxy)-1-((1R,5S)-8-(3-fluoropyridin-4-yl)-3,8-diazabicyclo[3.2.1]octan-3-yl)propan-1-one], the IC50 at M3 is 1 to 10 µM; on human M1 receptor, less than 0.1 µM; at M2 (setting [2]), 1 to 10 µM.

With `O=C(COCc1cccc2ncsc12)N1C[C@H]2CC[C@@H](C1)N2c1ccncc1F` [Example 86, 2-(benzo[d]thiazol-7-ylmethoxy)-1-((1R,5S)-8-(3-fluoropyridin-4-yl)-3,8-diazabicyclo[3.2.1]octan-3-yl)ethan-1-one], the IC50 on M3 was greater than 10 µM; on human M1 receptor (setting [1]) it was 1 to 10 µM; on M2 (setting [2]) it was 1 to 10 µM.
